The structures appear in SMILES notation.

In this assay the target is T1, RIPK2 enzyme (Homo sapiens, UniProt O43353).
T1 construct: purchased Carna 09-128
T1 sequence (O43353 1-299 limits assumed): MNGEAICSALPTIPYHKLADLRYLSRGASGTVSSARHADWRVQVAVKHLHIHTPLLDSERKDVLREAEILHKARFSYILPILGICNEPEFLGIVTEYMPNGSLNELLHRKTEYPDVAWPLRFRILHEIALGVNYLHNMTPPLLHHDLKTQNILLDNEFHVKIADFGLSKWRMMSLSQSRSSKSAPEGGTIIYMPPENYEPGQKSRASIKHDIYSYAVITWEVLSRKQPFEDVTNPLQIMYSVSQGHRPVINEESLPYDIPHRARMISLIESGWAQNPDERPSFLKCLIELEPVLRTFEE
Description: RIPK2 inhibition (ADP-Glo Kinase Assay). It counts as biochemical. The following applies: RIPK2 5 nM, ATP 150 μM, MBP substrate, read-out: RIPK2 IC50. In short, it runs like this:
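Swine MBP substrate; compound and 5 nM RIPK2 first mixed for 30 min at room temperature; buffer pH 7.5 HEPES 50 mM with 10 mM MgCl2, 2 mM DTT, 1 mM EGTA, Brij-35, BSA.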
In general terms: ADP-Glo turns the ADP formed in a reaction into a luminescent signal.
Turning to `Cc1cc(CC(=O)Nc2cnn(C(C)(C)C)c2)c(F)cc1Oc1ccnc2ccc(C(=O)NC3COC3)cc12` [Compound 392, 4-(4-(2-((1-(tert-butyl)-1H-pyrazol-4-yl)amino)-2-oxoethyl)-5-fluoro-2-methyl-phenoxy)-N-(oxetan-3-yl)quinoline-6-carboxamide], the IC50 is below 2.5 nM. Under `Cc1cc(CC(=O)Nc2cnn(C(C)(C)C)c2)c(F)cc1Oc1ccnc2ccc(C(=O)N[C@H]3C[C@H](O)C3)cc12` [Compound 393, 4-(4-(2-((1-(tert-butyl)-1H-pyrazol-4-yl)amino)-2-oxoethyl)-5-fluoro-2-methyl-phenoxy)-N-((1r,3r)-3-hydroxy-cyclobutyl) quinoline-6-carboxamide] stands below 2.5 nM; under `Cc1cc(CC(=O)Nc2cnn(C(C)(C)C)c2)c(F)cc1Oc1ccnc2ccc(C(=O)N[C@H]3C[C@@H](O)C3)cc12` [Compound 394, 4-(4-(2-((1-(tert-butyl)-1H-pyrazol-4-yl)amino)-2-oxoethyl)-5-fluoro-2-methyl-phenoxy)-N-((1s,3s)-3-hydroxy-cyclobutyl) quinoline-6-carboxamide], below 2.5 nM; under `Cc1cc(CC(=O)Nc2cnn(C(C)(C)C)c2)c(F)cc1Oc1ccnc2ccc(C(=O)NC3CNC3)cc12` [Compound 397, N-(azetidin-3-yl)-4-(4-(2-((1-(tert-butyl)-1H-pyrazol-4-yl)amino)-2-oxoethyl)-5-fluoro-2-methyl-phenoxy) quinoline-6-carboxamide], below 2.5 nM. The value for `Cc1cc(CC(=O)Nc2cnn(C(C)(C)C)c2)c(F)cc1Oc1ccnc2ccc(C(=O)NC3CC(F)(F)C3)cc12` [Compound 398, 4-(4-(2-((1-(tert-butyl)-1H-pyrazol-4-yl)amino)-2-oxoethyl)-5-fluoro-2-methyl-phenoxy)-N-(3,3-difluoro-cyclobutyl) quinoline-6-carboxamide] was below 2.5 nM; that for `Cc1c(Oc2ccnc3ccc(C(=O)NCC4COC4)cc23)ccc(CC(=O)Nc2cnn(C(C)(C)C)c2)c1F` [Compound 399, 4-(4-(2-((1-(tert-butyl)-1H-pyrazol-4-yl)amino)-2-oxoethyl)-3-fluoro-2-methyl-phenoxy)-N-(oxetan-3-ylmethyl) quinoline-6-carboxamide] was below 2.5 nM.

Turning to `Cc1c(Oc2ccnc3ccc(C(=O)NC4COC4)cc23)ccc(CC(=O)Nc2cnn(C(C)(C)C)c2)c1F` [Compound 400, 4-(4-(2-((1-(tert-butyl)-1H-pyrazol-4-yl)amino)-2-oxoethyl)-3-fluoro-2-methyl-phenoxy)-N-(oxetan-3-yl)quinoline-6-carboxamide], the IC50 was below 2.5 nM. Consider `Cc1c(Oc2ccnc3ccc(C(=O)N[C@H]4C[C@H](O)C4)cc23)ccc(CC(=O)Nc2cnn(C(C)(C)C)c2)c1F` [Compound 401, 4-(4-(2-((1-(tert-butyl)-1H-pyrazol-4-yl)amino)-2-oxoethyl)-3-fluoro-2-methyl-phenoxy)-N-((1r,3r)-3-hydroxy-cyclobutyl) quinoline-6-carboxamide], for which the half-inhibitory concentration (IC50) is below 2.5 nM. Take `Cc1c(Oc2ccnc3ccc(C(=O)N[C@H]4C[C@@H](O)C4)cc23)ccc(CC(=O)Nc2cnn(C(C)(C)C)c2)c1F` [Compound 402, 4-(4-(2-((1-(tert-butyl)-1H-pyrazol-4-yl)amino)-2-oxoethyl)-3-fluoro-2-methyl-phenoxy)-N-((1s,3s)-3-hydroxy-cyclobutyl) quinoline-6-carboxamide]: the IC50 was below 2.5 nM. `Cc1c(Oc2ccnc3ccc(C(=O)NC4CNC4)cc23)ccc(CC(=O)Nc2cnn(C(C)(C)C)c2)c1F` [Compound 405, N-(azetidin-3-yl)-4-(4-(2-((1-(tert-butyl)-1H-pyrazol-4-yl)amino)-2-oxoethyl)-3-fluoro-2-methylphenoxy)quinoline-6-carboxamide]: the IC50 was below 2.5 nM. As for `Cc1c(Oc2ccnc3ccc(C(=O)NC4CC(F)(F)C4)cc23)ccc(CC(=O)Nc2cnn(C(C)(C)C)c2)c1F` [Compound 406, 4-(4-(2-((1-(tert-butyl)-1H-pyrazol-4-yl)amino)-2-oxoethyl)-3-fluoro-2-methylphenoxy)-N-(3,3-difluorocyclobutyl)quinoline-6-carboxamide], the IC50 is below 2.5 nM. For the compound `Cc1c(Oc2ccnc3ccc(CC4CCNCC4)cc23)ccc(CC(=O)Nc2cnn(C(C)(C)C)c2)c1F` [Compound 407, N-(1-(tert-butyl)-1H-pyrazol-4-yl)-2-(2-fluoro-3-methyl-4-((6-(piperidin-4-ylmethyl)quinolin-4-yl)oxy)phenyl)acetamide], the IC50 is below 2.5 nM. Under `Cc1cc(CC(=O)Nc2cnn(C(C)(C)C)c2)c(F)cc1Oc1ccnc2ccc(CC3CCNCC3)cc12` [Compound 408, N-(1-(tert-butyl)-1H-pyrazol-4-yl)-2-(2-fluoro-5-methyl-4-((6-(piperidin-4-ylmethyl)quinolin-4-yl)oxy)phenyl)acetamide] stands below 2.5 nM; under `Cc1c(Oc2ccnc3ccc(O[C@H]4C[C@H]5CC[C@@H](C4)N5)cc23)ccc(CC(=O)Nc2cnn(C(C)(C)C)c2)c1F` [Compound 409, 2-(4-((6-(((1R,3r,5S)-8-azabicyclo[3. 2.1]octan-3-yl)oxy)quinolin-4-yl)oxy)-2-fluoro-3-methyl-pheny1)-N-(1-(tert-butyl)-1H-pyrazol-4-yl)acetamide], below 2.5 nM.

As for `Cc1cc(CC(=O)Nc2cnn(C(C)(C)C)c2)c(F)cc1Oc1ccnc2ccc(O[C@H]3C[C@H]4CC[C@@H](C3)N4)cc12` [Compound 410, 2-(4-((6-(((1R,3r,5S)-8-azabicyclo[3. 2.1]octan-3-yl)oxy)quinolin-4-yl)oxy)-2-fluoro-5-methyl-pheny1)-N-(1-(tert-butyl)-1H-pyrazol-4-yl)acetamide], the half-maximal inhibitory concentration (IC50) was below 2.5 nM. Take `Cc1cc(CC(=O)Nc2cnn(C(C)(C)C)c2)c(F)cc1Oc1ccnc2ccc(C(C)(C)C#N)cc12` [Compound 411, N-(1-(tert-butyl)-1H-pyrazol-4-yl)-2-(4-((6-(2-cyanopropan-2-yl)quinolin-4-yl)oxy)-2-fluoro-5-methylphenyl)acetamide]: the concentration for half-maximal inhibition (IC50) was below 2.5 nM. Under `COc1cc2nccc(Oc3cc(F)c(CC(=O)Nc4cnn(C(C)(C)C)c4)cc3C)c2cc1S(C)(=O)=O` [Compound 412, N-(1-(tert-butyl)-1H-pyrazol-4-yl)-2-(2-fluoro-4-((7-methoxy-6-(methylsulfonyl)quinolin-4-yl)oxy)-5-methylphenyl) acetamide] stands below 2.5 nM; under `Cc1cc(CC(=O)Nc2cnn(C(C)(C)C)c2)c(F)cc1Oc1ccnc2ccc(N3CCOC3=O)cc12` [Compound 414, N-(1-(tert-butyl)-1H-pyrazol-4-yl)-2-(2-fluoro-5-methyl-4-((6-(2-oxooxazolidin-3-yl)quinolin-4-yl)oxy)phenyl) acetamide], below 2.5 nM; under `Cc1cc(CC(=O)Nc2cnn(C(C)(C)C)c2)c(F)cc1Oc1ccnc2ccc(S(=O)(=O)CC(C)(C)O)cc12` [Compound 415, N-(1-(tert-butyl)-1H-pyrazol-4-yl)-2-(2-fluoro-4-((6-((2-hydroxy-2-methylpropyl)sulfonyl)quinolin-4-yl)oxy)-5-methylphenyl)acetamide], below 2.5 nM.

Regarding `Cc1cc(CC(=O)Nc2cnn(C(C)(C)C)c2)c(F)cc1Oc1ccnc2ccc(S(=O)(=O)C3CC3)cc12` [Compound 416, N-(1-(tert-butyl)-1H-pyrazol-4-yl)-2-(4-((6-(cyclopropylsulfonyl)quinolin-4-yl)oxy)-2-fluoro-5-methylphenyl)acetamide], the half-maximal inhibitory concentration (IC50) was below 2.5 nM. Under `CCS(=O)(=O)c1ccc2nccc(Oc3ccc(CC(=O)Nc4cnn(C(C)(C)C)c4)cc3C(F)F)c2c1` [Compound 417, N-(1-(tert-butyl)-1H-pyrazol-4-yl)-2-(3-(difluoromethyl)-4-((6-(ethylsulfonyl)quinolin-4-yl)oxy)phenyl) acetamide] stands below 2.5 nM; under `CC(C)(C)n1cc(NC(=O)Cc2ccc(Oc3ccnc4ccc(S(=O)(=O)C5CC5)cc34)c(C(F)F)c2)cn1` [Compound 418, N-(1-(tert-butyl)-1H-pyrazol-4-yl)-2-(4-((6-(cyclopropyl-sulfonyl)quinolin-4-yl)oxy)-3-(difluoromethyl)phenyl)acetamide], below 2.5 nM. Under `Cc1cc(CC(=O)Nc2cnn(C(C)(C)C)c2)c(F)cc1Oc1ccnc2ccc(CN3CCNCC3)cc12` [Compound 419, N-(1-(tert-butyl)-1H-pyrazol-4-yl)-2-(2-fluoro-5-methyl-4-((6-(piperazin-1-ylmethyl)quinolin-4-yl)oxy)phenyl)acetamide] stands below 2.5 nM; under `Cc1cc(CC(=O)Nc2cnn(C(C)(C)C)c2)c(F)cc1Oc1ccnc2ccc(CN3C[C@@H]4C[C@H]3CN4)cc12` [Compound 420, 2-(4-((6-(((1S,4S)-2,5-diazabicyclo[2.2.1]heptan-2-yl)methyl)quinolin-4-yl)oxy)-2-fluoro-5-methylphenyl)-N-(1-(tert-butyl)-1H-pyrazol-4-yl)acetamide], below 2.5 nM. For the compound `Cc1cc(CC(=O)Nc2cnn(C(C)(C)C)c2)c(F)cc1Oc1ccnc2ccc(CN3C[C@H]4C[C@@H]3CN4)cc12` [Compound 421, 2-(4-((6-(((1R,4R)-2,5-diazabicyclo[2.2.1]heptan-2-yl)methyl)quinolin-4-yl)oxy)-2-fluoro-5-methylphenyl)-N-(1-(tert-butyl)-1H-pyrazol-4-yl)acetamide], the IC50 was below 2.5 nM.

Consider `Cc1cc(CC(=O)Nc2cnn(C(C)(C)C)c2)c(F)cc1Oc1ccnc2ccc(CN3C[C@@H]4C[C@H]3CO4)cc12` [Compound 422, 2-(4-((6-(((1S,4S)-2-oxa-5-azabicyclo[2.2.1]heptan-5-yl)methyl)quinolin-4-yl)oxy)-2-fluoro-5-methylphenyl)-N-(1-(tert-butyl)-1H-pyrazol-4-yl)acetamide], for which the IC50 was below 2.5 nM.

In general, IC50 refers to the point on the concentration scale where inhibition reaches its midpoint.

The record behind these values is patent US12624018B1, “Inhibitors of RIPK2 and medical uses thereof” (Odyssey Therapeutics, Inc., priority 2022, dated 2026).
